“And” between values parts separate entries of the source, which are not always exact repeats. Equal entries are not always repeated. Inconclusive results and toxic doses are left out.

These results are taken from PubChem BioAssay AID222 (DTP/NCI, 2004).

The assay relates to C57BL/6 mice, intracerebral ependymoblastoma, median survival T/C. Put plainly: NCI In Vivo Anticancer Drug Screen. Data for tumor model Ependymoblastoma (intracerebral) in C57BL/6 mice. The following applies: endpoint: median survival time, higher = longer survival. As for the experimental part:
The antitumor activity of compounds was measured in mice bearing transplantable tumors. Survival or tumor size were measured and the results are expressed as the measurement made in the treated group (T) divided by the measurement made in the vehicle treated control group (C). The tumor model used in this assay is Ependymoblastoma (intracerebral) in C57BL/6 mice

The mark [1] stands for this setting: dose: 40.0 mg/kg/injection, schedule: Q01DX005 (ip), vehicle: saline.

`CC1CCC(NC(=O)N(CCCl)N=O)CC1` (centres undefined): the T/C by setting is: (dose: 8.0 mg/kg/injection, schedule: Q01DX001 (ip), vehicle: saline with Tween-80) 99 % of control; (dose: 8.0 mg/kg/injection, schedule: Q01DX005 (oral), vehicle: Klucel (hydroxypropylcellulose) (HPC)) 156 % of control; (dose: 16.0 mg/kg/injection, schedule: Q01DX001 (ip), vehicle: saline with Tween-80) 114 % of control; (dose: 16.0 mg/kg/injection, schedule: Q01DX005 (oral), vehicle: Klucel (hydroxypropylcellulose) (HPC)) 151 % of control; (dose: 32.0 mg/kg/injection, schedule: Q01DX001 (ip), vehicle: saline with Tween-80) 109 % of control; (dose: 32.0 mg/kg/injection, schedule: Q01DX001 (oral), vehicle: Klucel (hydroxypropylcellulose) (HPC)) 97 % of control. For the same compound, the T/C was 95 % of control and 109 % of control (dose: 64.0 mg/kg/injection, schedule: Q01DX001 (ip), vehicle: saline with Tween-80); 102 % of control (dose: 64.0 mg/kg/injection, schedule: Q01DX001 (oral), vehicle: Klucel (hydroxypropylcellulose) (HPC)); 98 % of control and 102 % of control (dose: 128.0 mg/kg/injection, schedule: Q01DX001 (ip), vehicle: saline with Tween-80); 102 % of control (dose: 128.0 mg/kg/injection, schedule: Q01DX001 (oral), vehicle: Klucel (hydroxypropylcellulose) (HPC)); 97 % of control (dose: 256.0 mg/kg/injection, schedule: Q01DX001 (ip), vehicle: saline with Tween-80); 95 % of control (dose: 256.0 mg/kg/injection, schedule: Q01DX001 (oral), vehicle: Klucel (hydroxypropylcellulose) (HPC)). Also, the T/C (dose: 512.0 mg/kg/injection, schedule: Q01DX001 (ip), vehicle: saline with Tween-80) was 92 % of control and the T/C (dose: 512.0 mg/kg/injection, schedule: Q01DX001 (oral), vehicle: Klucel (hydroxypropylcellulose) (HPC)) was 90 % of control.

Regarding `OC(CCl)CN1CC[N+]2(CC1)CC[N+]1(CCN(CC(O)CCl)CC1)CC2` (centres undefined), under setting [1], the T/C is 109 % of control and 117 % of control.

In the case of `Clc1ccc(C(c2ccc(Cl)cc2)C(Cl)(Cl)Cl)cc1`, the T/C was 92 % of control (dose: 8.0 mg/kg/injection, schedule: Q01DX005 (ip), vehicle: Klucel (hydroxypropylcellulose) (HPC)); 101 % of control (dose: 16.0 mg/kg/injection, schedule: Q01DX005 (ip), vehicle: Klucel (hydroxypropylcellulose) (HPC)); 96 % of control (dose: 32.0 mg/kg/injection, schedule: Q01DX005 (ip), vehicle: Klucel (hydroxypropylcellulose) (HPC)).

For the compound `NC(=O)c1ncn(C2OC(CO)C(O)C2O)n1` (centres undefined), the T/C by setting is: (dose: 20.0 mg/kg/injection, schedule: Q01DX005 (ip), vehicle: saline) 108 % of control; under setting [1], 105 % of control; (dose: 80.0 mg/kg/injection, schedule: Q01DX005 (ip), vehicle: saline) 108 % of control.

In the case of `CCN(CC)CCCC(C)Nc1c2ccc(Cl)cc2nc2ccc(OC)cc12` (centres undefined), the T/C by setting is: (dose: 8.0 mg/kg/injection, schedule: Q01DX005 (ip), vehicle: saline) 104 % of control; (dose: 16.0 mg/kg/injection, schedule: Q01DX005 (ip), vehicle: saline with Tween-80) 91 % of control; (dose: 16.0 mg/kg/injection, schedule: Q01DX005 (ip), vehicle: saline) 98 % of control; (dose: 32.0 mg/kg/injection, schedule: Q01DX005 (ip), vehicle: saline with Tween-80) 102 % of control; (dose: 32.0 mg/kg/injection, schedule: Q01DX005 (ip), vehicle: saline) 90 % of control; (dose: 64.0 mg/kg/injection, schedule: Q01DX005 (ip), vehicle: saline with Tween-80) 94 % of control. Also, the T/C was 95 % of control (dose: 64.0 mg/kg/injection, schedule: Q01DX005 (ip), vehicle: saline) and 94 % of control (dose: 128.0 mg/kg/injection, schedule: Q01DX005 (ip), vehicle: saline with Tween-80).
